Data published in patent US20240262909A1, “TIM-3 MODULATES ANTI-TUMOR IMMUNITY BY REGULATING INFLAMMASOME ACTIVATION” (THE BRIGHAM AND WOMEN'S HOSPITAL, INC., priority 2021, published 2024).

Tests used:
IL-1β = IL-1β levels in tumor supernatants of WT and Tim3cko animals with or without NAC; assay type: in vivo, mice; details: Tim3cko tumors; NAC in drinking water 40 mM
Excerpt: (§1) To investigate the effect of oxidative stress in Tim3^cko tumor bearing animals the inventors implanted Tim3^fl.fl and Tim3^fl.flZbtb46 cre mice with MC38-OVAdim and treated with or without antioxidant N-Acetyl-Cysteine (NAC) for the duration of the experiment. […] To determine whether mitigation of oxidative stress in Tim3^cko tumors also affected IL-1β levels intratumorally, the inventors prepared tumor supernatants and determined the levels of IL-1β in WT and Tim3cko animals treated with or without NAC.
(§2) The C57BL/6-derived colon carcinoma MC38 and MC38-OVAdim were maintained at 37° C. with 5% CO2 in DMEM medium supplemented with 10% heat-inactivated fetal calf serum, penicillin, and streptomycin and 1% Sodium Pyruvate. The C57BL/6-derived melanoma cell lines-B16 and B16-OVA-transfected clone were maintained at 37° C. with 5% CO2 in RPMI medium supplemented with 10% heat-inactivated fetal calf serum, penicillin, and streptomycin. MC38- OVA^dim (0.5×10^6), B16F10/B16-OVA (0.25×10^6) and MC38 (1.0×10^6) cells were injected subcutaneously in 100 μl PBS on the flank. Tumor size was determined by the formula L×W where L=length, W=width on the indicated days. In some experiments, mice were treated with anti-IL-1β (B122) and anti-IL-18 (YIGIF74-1 G7) or appropriate control Hamster Ig and Rat IgG2a (all at 8 mg/kg) i.p. on days 3, 6, 9 post tumor implantation. […]

MC38-OVAdim tumor = MC38-OVAdim tumor growth and weight in Tim3fl.fl and Tim3fl.flZbtb46 cre mice with or without NAC; assay type: in vivo; details: Tim3cko mice, NAC daily in drinking water 40 mM
Excerpt: as §1, §2

MC38-OVA tumor = MC38-OVA tumor growth and weight in Tim3fl.fl and Tim3fl.flxCD11c cre mice under inflammasome pathway inhibition; assay type: in vivo; details: Tim-3cko mice, 8 mg/kg
Excerpt: FIGS. 4A-4W: Loss of Tim3 on DC promotes inflammasome activation. (FIG. 4A) Unidirectional analysis of the fraction of DCs expressing ligand X and the fraction of T cells expressing the cognate Receptor; Ligand (MigDC): Receptor (CD8) interaction from WT (left) and Tim3cko (right) tumors. (FIG. 4B) Bar plot of data from FIG. 4A. (FIG. 4C). ECDF plots showing enrichment of IL-18 signature and (FIG. 4D) IL-1 signature in WT and Tim3^ckoCD8+ TILs. (FIG. 4E) ECDF plot of enrichment score for inflammasome signature in WT or Tim3^cko migratory DC, (p=1.5*10^−03), (FIG. 4F) Dot plot of selected genes from inflammasome signature. (FIG. 4G) ECDF plot of enrichment score for Oxidative Stress signature, (FIG. 4H) Dot plot of selected genes from Oxidative Stress signature. (FIG. 4I) MC38-OVA (0.5×10^6 cells) were subcutaneously implanted into Tim3^fl.fl and Tim3^fl.flxCD11c cre mice and on D14 tumors mononuclear cells were isolated and incubated with DHR123 for 30 minutes followed by flow-cytometric analysis of activated DHR123 as a measure of ROS activity in tumor infiltrating DC. […]
The C57BL/6-derived colon carcinoma MC38 and MC38-OVAdim were maintained at 37° C. with 5% CO2 in DMEM medium supplemented with 10% heat-inactivated fetal calf serum, penicillin, and streptomycin and 1% Sodium Pyruvate. […] Tumor size was determined by the formula L×W where L=length, W=width on the indicated days. […]

Structure (SMILES)	elevated intratumoral IL-1β levels (tumor supernatants) (IL-1β)	protective inhibition of tumor growth (tumor growth) (MC38-OVAdim tumor)	protective inhibition of tumor growth (tumor weights post-harvest) (MC38-OVAdim tumor)	protective anti-tumor immunity observed in the Tim-3cko (MC38-OVA tumor)
CC(=O)N[C@@H](CS)C(=O)O [NAC, N-Acetyl-Cysteine]	completely reversed	completely abrogated	completely abrogated	
CC(C)(O)c1coc(S(=O)(=O)[N-]C(=O)Nc2c3c(cc4c2CCC4)CCC3)c1.[Na+] [CRID3]				abolished the protective anti-tumor immunity
